Measured values from ChEMBL document CHEMBL5055669, “Development of Potent and Selective Agonists for Complement C5a Receptor 1 with In Vivo Activity” (J Med Chem, 2021).
Activity calls are given as the source filed them. The rule behind the calls is not given here. Square brackets hold non-standard residues; d marks the D form. Peptide text beside a SMILES is read from it. Nva = CCC[C@H](N)C(=O)O; Abu = CC[C@H](N)C(=O)O

Legend:
[1] = biological target: T1, C3a anaphylatoxin chemotactic receptor (Homo sapiens, UniProt Q16581); experiment: Agonist activity at human C3aR expressed in CHO cells assessed as induction of ERK1/2 phosphorylation at Thr202/Tyr204 residues incubated for 10 mins by AlphaLISA assay; assay type: functional, cell-based
T1 sequence (Q16581 whole entry): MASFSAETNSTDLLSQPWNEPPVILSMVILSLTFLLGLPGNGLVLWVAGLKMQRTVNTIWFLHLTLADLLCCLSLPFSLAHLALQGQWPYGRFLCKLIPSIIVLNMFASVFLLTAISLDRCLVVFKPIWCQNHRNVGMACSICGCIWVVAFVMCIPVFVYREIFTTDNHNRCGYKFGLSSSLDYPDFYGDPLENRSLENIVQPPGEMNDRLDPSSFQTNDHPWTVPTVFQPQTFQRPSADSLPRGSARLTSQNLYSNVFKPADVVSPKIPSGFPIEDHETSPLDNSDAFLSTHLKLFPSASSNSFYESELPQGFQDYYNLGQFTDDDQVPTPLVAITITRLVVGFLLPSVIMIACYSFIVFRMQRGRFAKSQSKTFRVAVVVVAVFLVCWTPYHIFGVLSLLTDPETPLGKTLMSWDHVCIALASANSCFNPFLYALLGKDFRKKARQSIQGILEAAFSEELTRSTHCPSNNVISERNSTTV

[2] = biological target: T2, C5a anaphylatoxin chemotactic receptor 1 (Homo sapiens, UniProt P21730); experiment: Agonist activity at human C5aR1 expressed in CHO cells assessed as induction of ERK1/2 phosphorylation at Thr202/Tyr204 residues incubated for 10 mins by AlphaLISA assay; assay type: functional, cell-based
T2 sequence (P21730 whole entry): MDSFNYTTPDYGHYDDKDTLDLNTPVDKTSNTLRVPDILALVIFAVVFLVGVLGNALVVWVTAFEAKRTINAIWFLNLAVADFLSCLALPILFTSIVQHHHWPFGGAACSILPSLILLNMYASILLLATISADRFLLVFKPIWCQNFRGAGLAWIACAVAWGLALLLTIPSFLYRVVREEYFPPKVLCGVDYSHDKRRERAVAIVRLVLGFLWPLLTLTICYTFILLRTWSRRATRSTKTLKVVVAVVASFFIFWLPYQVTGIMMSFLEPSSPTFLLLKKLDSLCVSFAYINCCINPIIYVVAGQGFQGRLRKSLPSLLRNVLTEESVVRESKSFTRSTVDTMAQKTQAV

Homo sapiens = species on record: Homo sapiens; experiment: Selectivity ratio of EC50 for agonist activity at human C3aR expressed in CHO cells to EC50 for agonist activity at human C5aR1 expressed in CHO cells; assay type: cell-based
[3] = biological target: T3, C5a anaphylatoxin chemotactic receptor 1 (Mus musculus, UniProt P30993); experiment: Agonist activity at C5aR1 in mouse RAW264.7 cells assessed as induction of ERK1/2 phosphorylation at Thr202/Tyr204 residues incubated for 10 mins by AlphaLISA assay; assay type: functional, cell-based
T3 sequence (P30993 whole entry): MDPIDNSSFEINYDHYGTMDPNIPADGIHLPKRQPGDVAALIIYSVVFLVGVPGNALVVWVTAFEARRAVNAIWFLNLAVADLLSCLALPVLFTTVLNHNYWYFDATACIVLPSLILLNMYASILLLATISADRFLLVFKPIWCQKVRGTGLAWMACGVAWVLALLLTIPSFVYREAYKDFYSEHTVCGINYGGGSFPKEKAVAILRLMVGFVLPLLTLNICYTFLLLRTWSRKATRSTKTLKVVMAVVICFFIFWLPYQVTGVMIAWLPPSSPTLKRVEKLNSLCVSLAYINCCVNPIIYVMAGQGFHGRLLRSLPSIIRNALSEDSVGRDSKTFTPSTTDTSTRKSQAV

[4] = biological target: T4, C5a anaphylatoxin chemotactic receptor 1 (Mus musculus) (UniProt P30993); experiment: Agonist activity at C5aR1 in mouse RAW264.7 cells assessed as induction of ERK1/2 phosphorylation at Thr202/Tyr204 residues at up to 100 uM incubated for 10 mins in presence of JPE1375 by AlphaLISA assay; assay type: functional, cell-based
T4 sequence (whole entry): T3 sequence (P30993 whole entry)

MDM [5] = experiment: Antiinflammatory activity in human MDM cells assessed as suppression of LPS-induced IL-6 production at 1 uM measured after 24 hrs by ELISA; assay type: functional, cell-based
MDM [6] = experiment: Antiinflammatory activity in human MDM cells assessed as suppression of LPS-induced TNFalpha production at 1 uM measured after 24 hrs by ELISA; assay type: functional, cell-based
[7] = Ratio of EC50 for agonist activity at C5aR1 in mouse RAW264.7 cells to EC50 for agonist activity at human C5aR1 expressed in CHO cells; assay type: cell-based
Mus musculus = experiment: Antiinflammatory activity in C57BL/6J mouse assessed as polymorphonuclear leucocyte mobilization at 50 ug/kg, iv measured after 30 mins by hemacolor-staining based microscopic analysis relative to control; assay type: functional; details: dose 50 µg/kg, 0.5 h
[8] = biological target: T4, C5a anaphylatoxin chemotactic receptor 1 (Mus musculus); experiment: Agonist activity at C5aR1 in mouse RAW264.7 cells assessed as induction of ERK1/2 phosphorylation at Thr202/Tyr204 residues at up to 100 uM incubated for 10 mins by AlphaLISA assay; assay type: functional, cell-based

SMILES	EC50 ([1]; read-out: pEC50 (converted))	EC50 [2]	Ratio EC50 (Homo sapiens)	other results
CC(C)C[C@H](NC(=O)[C@@H]1CCCN1C(=O)[C@H](CCCCN)NC(=O)[C@@H](N)Cc1ccccc1)C(=O)N1CCC[C@H]1C(=O)N[C@@H](C)C(=O)N[C@H](C)C(=O)N[C@@H](CCCNC(=N)N)C(=O)O	54800 nM			
CC(C)C[C@H](NC(=O)[C@H](C)NC(=O)[C@@H](NC(=O)[C@@H]1CCCN1C(=O)[C@H](CCCNC(=N)N)NC(=O)[C@@H](N)Cc1ccccc1)[C@@H](C)O)C(=O)N[C@H](C)C(=O)N[C@@H](CCCNC(=N)N)C(=O)O	9.04 nM	24.4 nM	0.4	
CC(=O)N[C@@H](Cc1ccccc1)C(=O)N[C@@H](CCCCN)C(=O)N1CCC[C@H]1C(=O)N[C@@H](CC(C)C)C(=O)N[C@@H](C)C(=O)N[C@@H](Cc1ccccc1)C(=O)N[C@H](C)C(=O)N[C@@H](CCCNC(=N)N)C(=O)O (Ac-FKPLAF[dA]R-OH)	3760 nM	73.3 nM	51.5	
CC(C)C[C@H](NC(=O)[C@@H]1CCCN1C(=O)[C@H](C)NC(=O)[C@@H]1CCCN1C(=O)[C@H](CCCCN)NC(=O)[C@@H](N)Cc1ccccc1)C(=O)N[C@H](C)C(=O)N[C@@H](CCCNC(=N)N)C(=O)O	11 nM	44.4 nM	0.25	
CC(C)C[C@H](NC(=O)[C@@H]1CCCN1C(=O)[C@H](CCCCN)NC(=O)[C@@H](N)Cc1ccccc1)C(=O)N[C@@H](C)C(=O)N[C@@H](C)C(=O)N[C@H](C)C(=O)N[C@@H](CCCNC(=N)N)C(N)=O				EC50 ([1]; read-out: EC50): > 100000 nM
CC(C)C[C@H](NC(=O)[C@@H]1CCCN1C(=O)[C@H](CC(C)C)NC(=O)[C@@H]1CCCN1C(=O)[C@H](CCCCN)NC(=O)[C@@H](N)Cc1ccccc1)C(=O)N[C@H](C)C(=O)N[C@@H](CCCNC(=N)N)C(=O)O (H-FKPLPL[dA]R-OH)	129 nM			
CC(=O)N[C@@H](Cc1ccccc1)C(=O)N[C@@H](CCCCN)C(=O)N1CCC[C@H]1C(=O)N[C@@H](CC(C)C)C(=O)N[C@@H](C)C(=O)N[C@H](C(=O)N[C@H](C)C(=O)N[C@@H](CCCNC(=N)N)C(=O)O)[C@@H](C)O	69800 nM	34.1 nM	2050	
CC(C)C[C@H](NC(=O)[C@@H]1CCCN1C(=O)[C@H](CC(C)C)NC(=O)[C@@H]1CCCN1C(=O)[C@H](CCCCN)NC(=O)[C@H](C)N)C(=O)N[C@H](C)C(=O)N[C@@H](CCCNC(=N)N)C(=O)O	631 nM	19100 nM	0.033	
CC[C@@H](C)[C@@H](NC(=O)[C@H](C)NC(=O)[C@H](CC(C)C)NC(=O)[C@@H]1CCCN1C(=O)[C@H](CCCCN)NC(=O)[C@H](Cc1ccccc1)NC(C)=O)C(=O)N[C@@H](C)C(=O)N[C@@H](CCCNC(=N)N)C(=O)O	429 nM	1.54 nM	214	
CCC[C@H](NC(=O)[C@H](C)NC(=O)[C@H](CC(C)C)NC(=O)[C@@H]1CCCN1C(=O)[C@H](CCCCN)NC(=O)[C@H](Cc1ccccc1)NC(C)=O)C(=O)N[C@@H](C)C(=O)N[C@@H](CCCNC(=N)N)C(=O)O (Ac-FKPLA[Nva]AR-OH)	752 nM			
CC(=O)N[C@@H](Cc1ccccc1)C(=O)N[C@H]1CCCCNC(=O)[C@H](CCCNC(=N)N)NC(=O)[C@@H](C)NC(=O)[C@H](C)NC(=O)[C@H](C)NC(=O)[C@H](CC(C)C)NC(=O)[C@@H]2CCCN2C1=O				EC50 ([1]; read-out: EC50): > 100000 nM
CC(C)C[C@H](NC(=O)[C@H](C)NC(=O)[C@@H](NC(=O)[C@@H]1CCCN1C(=O)[C@H](CCCCN)NC(=O)[C@@H](N)Cc1ccccc1)[C@@H](C)O)C(=O)N[C@H](C)C(=O)N[C@@H](CCCNC(=N)N)C(=O)O	37.1 nM	10.4 nM	3.7	
CC(C)C[C@H](NC(=O)[C@H](C)NC(=O)[C@H](CC(C)C)NC(=O)[C@@H]1CCCN1C(=O)[C@H](CCCCN)NC(=O)[C@@H](N)Cc1ccccc1)C(=O)N[C@H](C)C(=O)N[C@@H](CCCNC(=N)N)C(=O)O	435 nM	4.35 nM	109	
CC(C)C[C@H](NC(=O)[C@@H]1CCCN1C(=O)[C@H](CC(C)C)NC(=O)[C@H](C)NC(=O)[C@H](CCCCN)NC(=O)[C@@H](N)Cc1ccccc1)C(=O)N[C@H](C)C(=O)N[C@@H](CCCNC(=N)N)C(=O)O	61.9 nM	19.5 nM	3.26	
CC(C)C[C@H](NC(=O)[C@@H]1CCCN1C(=O)[C@H](CCCCN)NC(=O)[C@@H](N)Cc1ccccc1)C(=O)N[C@@H](C)C(=O)N[C@@H](C)C(=O)N[C@@H](C)C(=O)N[C@@H](CCCNC(=N)N)C(=O)O	17300 nM			
CC[C@H](NC(=O)[C@H](C)NC(=O)[C@H](CC(C)C)NC(=O)[C@@H]1CCCN1C(=O)[C@H](CCCCN)NC(=O)[C@H](Cc1ccccc1)NC(C)=O)C(=O)N[C@H](C)C(=O)N[C@@H](CCCNC(=N)N)C(=O)O (Ac-FKPLA[Abu][dA]R-OH)	14500 nM	5.78 nM	2420	EC50 [3]: 2300 nM; Activity [4]: inactive; Activity (MDM [5]): Active; Activity (MDM [6]): Active; Ratio EC50 [7]: 1000; Activity (Mus musculus): 41%
CC(C)C[C@H](NC(=O)[C@@H]1CCCN1C(=O)[C@H](CCCCN)NC(=O)[C@@H](N)Cc1ccccc1)C(=O)N[C@@H](C)C(=O)N[C@@H](C)C(=O)N[C@H](C)C(=O)N[C@@H](CCCNC(=N)N)C(=O)O	131000 nM			Activity [8]: inactive
C[C@H](NC(=O)[C@H](C)NC(=O)[C@@H](NC(=O)[C@@H]1CCCN1C(=O)[C@H](CCCCN)NC(=O)[C@@H](N)Cc1ccccc1)[C@@H](C)O)C(=O)N[C@H](C)C(=O)N[C@@H](CCCNC(=N)N)C(=O)O	7010 nM	895 nM	7.8	
CC(C)C[C@H](NC(=O)[C@H](C)NC(=O)[C@H](CC(C)C)NC(=O)[C@@H]1CCCN1C(=O)[C@H](CCCCN)NC(=O)[C@H](C)N)C(=O)N[C@H](C)C(=O)N[C@@H](CCCNC(=N)N)C(=O)O	532 nM	1430 nM	0.4	
CC(C)C[C@H](NC(=O)[C@@H]1CCCN1C(=O)[C@H](CC(C)C)NC(=O)[C@@H]1CCCN1C(=O)[C@H](C)NC(=O)[C@@H](N)Cc1ccccc1)C(=O)N[C@H](C)C(=O)N[C@@H](CCCNC(=N)N)C(=O)O	282 nM	708 nM	0.4	
CC(=O)N[C@@H](Cc1ccccc1)C(=O)N[C@@H](CCCCN)C(=O)N1CCC[C@H]1C(=O)N[C@@H](CC(C)C)C(=O)N[C@@H](C)C(=O)N[C@@H](C)C(=O)N[C@H](C)C(=O)N[C@@H](CCCNC(=N)N)C(=O)O (Ac-FKPLAA[dA]R-OH)				EC50 [3]: 22900 nM; Activity [4]: inactive
